Laboratory results from patent publication US5597848A, “Benzenesulfonamide derivatives and use thereof” (Hokuriku Seiyaku Co., Ltd., priority 1992, dated 1997).

What was measured:
thromboxane A2 receptor = target: T1, thromboxane A2 receptor (Cavia porcellus, UniProt A0A286Y4I8); experiment: Thromboxane A2 antagonistic effect: inhibition of U-46619-induced platelet aggregation in guinea-pig platelet-rich plasma; assay type: cell-based, guinea-pigs; settings: guinea-pig PRP, U-46619 2 μg/ml, 2 min at 37° C.; read-out: IC50 (50% inhibition against platelet aggregation)
T1 construct: platelet-rich plasma; endogenous in cells; host or cells: guinea-pig platelets in platelet-rich plasma
T1 sequence (A0A286Y4I8 1-347): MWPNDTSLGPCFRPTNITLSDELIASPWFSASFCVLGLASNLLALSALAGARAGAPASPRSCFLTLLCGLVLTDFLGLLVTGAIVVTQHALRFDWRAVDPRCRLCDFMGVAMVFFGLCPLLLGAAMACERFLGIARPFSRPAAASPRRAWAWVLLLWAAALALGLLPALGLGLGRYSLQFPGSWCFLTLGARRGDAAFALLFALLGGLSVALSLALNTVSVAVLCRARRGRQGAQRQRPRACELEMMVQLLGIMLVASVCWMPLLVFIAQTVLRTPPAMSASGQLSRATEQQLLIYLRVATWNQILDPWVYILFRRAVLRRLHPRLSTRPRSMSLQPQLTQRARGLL
Experimental: Blood was collected from the abdominal aorta of guinea-pigs (about 400 g wt.) into 1/10 volume of 3.8% sodium citrate, and then platelet-rich plasma (PRP: 6×10^5 cells/μl) was obtained by centrifugation. A cuvette was filled with PRP 190 μl and set in an aggregometer (Hema Tracer I; Niko Bioscience). Incubation was carried out for 2 min. at 37° C. after the addition of 1 μl of dimethyl sulfoxide solution of test compounds. To the PRP, 10 μl of U-46619 (Cayman), a thromboxane A2 /prostaglandin H2 receptor agonist and potent platelet aggregation inducer, was added at the final concentration of 2 μg/ml, and platelet aggregation was measured by an aggregometer.

[1] = target: T2, thromboxane A2 synthetase (Homo sapiens, UniProt P24557); experiment: Inhibitory effect on thromboxane A2 synthetase (human platelet membrane fraction, thromboxane B2 RIA); assay type: biochemical; settings: 3 min at 25° C., read-out: IC50 (50% inhibition of the enzyme activity)
T2 construct: human platelet membrane fraction (RAN) as a source of thromboxane A2 synthetase; purchased RAN; host or cells: human platelet membrane fraction
T2 sequence (P24557 1-533): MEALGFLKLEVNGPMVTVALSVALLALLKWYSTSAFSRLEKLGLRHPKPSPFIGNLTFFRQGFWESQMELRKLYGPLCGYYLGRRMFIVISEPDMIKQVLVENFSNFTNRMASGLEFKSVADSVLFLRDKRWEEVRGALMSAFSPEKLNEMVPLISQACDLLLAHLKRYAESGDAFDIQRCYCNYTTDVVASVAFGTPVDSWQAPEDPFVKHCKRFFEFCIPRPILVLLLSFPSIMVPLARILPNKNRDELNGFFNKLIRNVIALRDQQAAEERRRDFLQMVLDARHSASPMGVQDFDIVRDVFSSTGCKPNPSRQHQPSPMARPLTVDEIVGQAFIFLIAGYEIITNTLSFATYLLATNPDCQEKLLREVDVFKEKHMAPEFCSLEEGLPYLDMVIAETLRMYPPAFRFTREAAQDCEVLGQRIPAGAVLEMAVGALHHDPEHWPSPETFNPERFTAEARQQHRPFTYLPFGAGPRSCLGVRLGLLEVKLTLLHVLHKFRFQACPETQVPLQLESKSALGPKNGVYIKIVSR
Experimental: 100 μg/ml (285 μl) of the commercially available human platelet membrane fraction (RAN) as a source of thromboxane A2 synthetase, dimethyl sulfoxide solution of test compounds (10 μl) and 100 μg/ml (5 μl) of prostaglandin H2 (Cayman) were mixed and reaction was carried out for 3 min at 25° C. Amount of thromboxane B2, a stable metabolite derived from thromboxane A2 produced, was measured by RIA method (TXB2 quantification kit; NEN).

leukotriene D4 = target: T3, leukotriene D4 (Cavia porcellus, UniProt Q2NNR5); experiment: Leukotriene D4 antagonistic effect in isolated trachea (Schild method); parameters: species or system male Hartley guinea-pigs; settings: isolated trachea, 30 min treatment, indomethacin 3×10^-6 M, Krebs 37° C.
T3 construct: tracheas were isolated from male Hartley guinea-pigs; from tissue; host or cells: isolated trachea of male Hartley guinea-pigs
T3 sequence (Q2NNR5 1-340): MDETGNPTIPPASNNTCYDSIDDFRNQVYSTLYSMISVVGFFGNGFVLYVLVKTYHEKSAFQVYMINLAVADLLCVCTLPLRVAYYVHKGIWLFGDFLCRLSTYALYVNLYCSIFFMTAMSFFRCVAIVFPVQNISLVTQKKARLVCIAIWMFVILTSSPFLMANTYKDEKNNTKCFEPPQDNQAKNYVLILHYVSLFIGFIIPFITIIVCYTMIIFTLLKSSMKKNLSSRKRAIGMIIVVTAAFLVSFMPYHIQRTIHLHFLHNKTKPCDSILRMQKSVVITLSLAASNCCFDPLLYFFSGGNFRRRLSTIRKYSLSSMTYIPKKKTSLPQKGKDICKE
Experimental: According to an ordinary method, tracheas were isolated from male Hartley guinea-pigs, and ring specimens of approximately […] length were prepared. These specimens were suspended isotonically in organ baths that contained Krebs solution at 37° C. under a resting tension of 0.5 g. After repeated contractions with acetylcholine (1×10^-6 M; Ovisot for injection, Daiichi Seiyaku), and the first concentration-response curves was obtained by cummulative applications of leukotriene D4 (ULTRA FINE) into the organ baths. After treatments with test compounds at adequate concentrations for 30 min, the second concentration-response curves were obtained in the same manner as first applications. pKB values were calculated using these two concentration-response curves according to the method of Schild [Pharmacological Review, Vol. 9, 242 (1957)]. Indomethacin (3×10^-6 M; Sigma) was added beforehand to the organ bath to eliminate possible affections by thromboxane A2 and prostaglandin produced by stimulus of leukotriene D4 [Japan J. Pharmacol., Vol. 60, 227 (1992)].

[2] = tested on: broncho-constriction induced by U-46619; experiment: Inhibitory effect on broncho-constriction induced by U-46619 (Konzett-Roessler method, oral); assay type: in vivo, Male hartley guinea-pigs; settings: 0.3 mg/kg orally, 2 hrs before U-46619 4 μg/kg
Experimental: Airway resistance was evaluated according to the method of Konzett-Roessler[Naunyn-Schmiedberg's Arch. Exp. Path. Pharmak., Vol. 195, 71 (1940)]. Male hartley guinea-pigs (about 400 g wt.) were anesthetized with urethane (1.5 g/kg, i.p.) and ventilated by an artificial respirator (Model 683; Harvard). At that time, overflowed air volume above the pressure of about 12 cm H2 O was measured by using a sensor (Model 7020; Ugo basile) and the value was used as an index of broncho-constriction. 0.3 mg/kg (5 ml/kg) of test compounds suspended in 5% gum Arabic was administered orally to Guinea-pigs fasted beforehand for 24 hr. After 2 hrs, U-46619 (4 μg/kg; Cayman) was administered through the cervical vein, and then maximal response was measured. Inhibitory rates compared to the reference group were calculated based on the response rate normalized by the complete closure as 100%.

[3] = tested on: broncho-constriction induced by leukotriene D4; experiment: Inhibitory effect on broncho-constriction induced by leukotriene D4 (Konzett-Roessler method, oral); assay type: in vivo, male Hartley guinea-pig; settings: Cavia porcellus, po; 30 mg/kg orally, leukotriene D4 1 μg/kg after 2 hr; indomethacin and propranolol pretreatment; read-out: Inhibition rate
Experimental: Airway resistance was evaluated according to the method of Konzett-Roessler[Naunyn-Schmiedberg's Arch. Exp. Path. Pharmak., Vol. 195, 71 (1940)]. After male Hartley guinea-pig fasted beforehand for 24 hr were anesthetized with urethane, overflowed air volume was measured under artificial ventilation as an index of broncho-constriction. 30 mg/kg (5 ml/kg) of test compounds suspended in 5% gum Arabic were administered orally to […]. Leukotriene D4 (1 μg/kg; ULTRA FINE) was administered through the cervical vein after 2 hr, and then values were measured at 2 min after the time when responses became maximum. Inhibitory rates compared to the control group were calculated based on the response rate normalized by the overflowed volume at complete closure as 100% broncho-constriction state. Indomethacin (2 mg/kg, i.v.) and propranolol (1 mg/kg, i.v.) were administered at 10 min and 5 min before the administration of leukotriene D4, respectively.

Structure (SMILES)	IC50 (thromboxane A2 receptor)	IC50 [1]	Kb (leukotriene D4)	Inhibition rate [2]	inhibition in vivo at 30 mg/kg [3]	pKB (leukotriene D4)
O=C(O)CCCc1ccc(C(Cc2ccccc2)NS(=O)(=O)c2ccc(Cl)cc2)cc1 (stereo not shown) [Example 62, 4-[4-[1-(4-Chlorophenylsulfonylamino)-2-phenylethyl]phenyl]butyric Acid]	50 nM	4000 nM				
CC(NS(=O)(=O)c1ccc(Cl)cc1)c1ccc(CCCC(=O)O)cc1 (stereo not shown) [Example 63, 4-[4-[1-(4-Chlorophenylsulfonylamino)ethyl]phenyl]butyric Acid]		2000 nM				
CCCCC(NS(=O)(=O)c1ccc(Cl)cc1)c1ccc(CCCC(=O)O)cc1 (stereo not shown) [Example 66, 4-[4-[1-(4-Chlorophenylsulfonylamino)pentyl]phenyl]butyric Acid]	320 nM		794 nM	85%	81%	
CCCCCC(NS(=O)(=O)c1ccc(Cl)cc1)c1ccc(CCCC(=O)O)cc1 (stereo not shown) [Example 67, 4-[4-[1-(4-Chlorophenylsulfonylamino)hexyl]phenyl]butyric Acid]	400 nM			86%	80%	
CC(C)CCC(NS(=O)(=O)c1ccc(Cl)cc1)c1ccc(CCCC(=O)O)cc1 (stereo not shown) [Example 71, 4-[4-[1-(4-Chlorophenylsulfonylamino)-4-methylpentyl]phenyl]butyric Acid]	400 nM		200 nM		68%	
O=C(O)CCCc1ccc(C(CC2CCCCC2)NS(=O)(=O)c2ccc(Cl)cc2)cc1 (stereo not shown) [Example 79, 4-[4-[1-(4-Chlorophenylsulfonylamino)-2-cyclohexylethyl]phenyl]butyric Acid]	320 nM		100 nM	55%		
O=C(O)CCCc1ccc(C(CCC2CCCCC2)NS(=O)(=O)c2ccc(Cl)cc2)cc1 (stereo not shown) [Example 80, 4-[4-[1-(4-Chlorophenylsulfonylamino)-3-cyclohexylpropyl]phenyl]butyric Acid]	1000 nM		126 nM		60%	
O=C(O)CCCc1ccc(C(Cc2ccc(Cl)cc2)NS(=O)(=O)c2ccc(Cl)cc2)cc1 (stereo not shown) [Example 96, 4-[4-[2-(4-Chlorophenyl)-1-(4-chlorophenylsulfonylamino)ethyl]phenyl]butyric Acid]	630 nM		1000 nM	89%	43%	
Cc1ccc(CC(NS(=O)(=O)c2ccc(Cl)cc2)c2ccc(CCCC(=O)O)cc2)cc1 (stereo not shown) [Example 97, 4-[4-[1-(4-Chlorophenylsulfonylamino)-2-(p-tolyl)ethyl]phenyl]butyric Acid]	320 nM			88%	56%	5.9
O=C(O)CCCc1ccc(C(CCc2ccccc2)NS(=O)(=O)c2ccc(Cl)cc2)cc1 (stereo not shown) [Example 98, 4-[4-[1-(4-Chlorophenylsulfonylamino)-3-phenylpropyl]phenyl]butyric Acid]	320 nM		398 nM	84%	57%	
CCCCCCC(NS(=O)(=O)c1ccc(Cl)cc1)c1ccc(CCCC(=O)O)cc1 (stereo not shown) [Example 99, 4-[4-[1-(4-Chlorophenylsulfonylamino)heptyl]phenyl]butyric Acid]	320 nM		126 nM		64%	
CCCCC(NS(=O)(=O)c1ccc(Cl)cc1)c1ccc(CCCCC(=O)O)cc1 (stereo not shown) [Example 102, 5-[4-[1-(4-Chlorophenylsulfonylamino)pentyl]phenyl]valeric Acid]			200 nM		50%	
CCCCCC(NS(=O)(=O)c1ccc(Br)cc1)c1ccc(CCCC(=O)O)cc1 (stereo not shown) [Example 104, 4-[4-[1-(4-Bromophenylsulfonylamino)hexyl]phenyl]butyric Acid]					83%	
CCCCCC(NS(=O)(=O)c1ccc(F)cc1)c1ccc(CCCC(=O)O)cc1 (stereo not shown) [Example 105, 4-[4-[1-(4-Fluorophenylsulfonylamino)hexyl]phenyl]butyric Acid]					82%	
CCCCCC(NS(=O)(=O)c1ccc(Cl)cc1)c1ccc(CCCCC(=O)O)cc1 (stereo not shown) [Example 106, 5-[4-[1-(4-Chlorophenylsulfonylamino)hexyl]phenyl]valeric Acid]			126 nM		58%	
CC(C)CCCC(NS(=O)(=O)c1ccc(Cl)cc1)c1ccc(CCCC(=O)O)cc1 (stereo not shown) [Example 107, 4-[4-[1-(4-Chlorophenylsulfonylamino)-5-methylhexyl]phenyl]butyric Acid]	250 nM		100 nM		83%	
CC(C)CCCCC(NS(=O)(=O)c1ccc(Cl)cc1)c1ccc(CCCC(=O)O)cc1 (stereo not shown) [Example 108, 4-[4-[1-(4-Chlorophenylsulfonylamino)-6-methylheptyl]phenyl]-butyric Acid]	500 nM		158 nM		82%	
